Read-outs that look alike come from different tables or passages of the source.
Format: physicochemical
Protocol: To this salt, 0.5 ml of water was added, followed by stirring at room temperature for 4 hours, after which the liquid was filtered through a 0.2 μm filter and quantified by HPLC. The peptide B and 3-hydroxy-2-naphthoic acid concentrations were 2.37 g/l and 0.751 g/l, respectively.

Row | water solubility relative to the water solubility of the acetate of peptide B | solubility (3-hydroxy-2-naphthoic acid concentration in saturated aqueous solution (water solubility of the salt)) | solubility (peptide B concentration in saturated aqueous solution (water solubility of the salt)) | solubility (water solubility) | Structure (SMILES)
1 | not more than 1/100 | 0.751 mg/mL | 2.37 mg/mL | – | CCNC(=O)[C@@H]1CCCN1C(=O)[C@H](CCCNC(=N)N)NC(=O)[C@H](CC(C)C)NC(=O)[C@@H](CC(C)C)NC(=O)[C@H](Cc1ccc(O)cc1)NC(=O)[C@H](CO)NC(=O)[C@H](Cc1c[nH]c2ccccc12)NC(=O)[C@H](Cc1c[nH]cn1)NC(=O)[C@@H]1CCC(=O)N1
2 | – | – | – | ≥ 1000 mg/mL | CCNC(=O)[C@@H]1CCCN1C(=O)[C@H](CCCNC(=N)N)NC(=O)[C@H](CC(C)C)NC(=O)[C@@H](CC(C)C)NC(=O)[C@H](Cc1ccc(O)cc1)NC(=O)[C@H](CO)NC(=O)[C@H](Cc1c[nH]c2ccccc12)NC(=O)[C@H](Cc1c[nH]cn1)NC(=O)[C@@H]1CCC(=O)N1 [acetate of peptide B, reference compound]

Source: patent US6740634B1, “Sustained release compositions, process for producing the same and utilization thereof” (Takeda Chemical Industries, Ltd., priority 1998, dated 2004)
